Experimental data reported in patent US20050197350A1, “Novel quinoline, tetrahydroquinazoline, and pyrimidine derivatives and methods of treatment related to the use thereof” (TAISHO PHARMACEUTICAL CO., LTD., priority 2003, published 2005).

System: MCH receptors
Test: MCH receptor activity class (method not given)
Settings: MCH receptor activity class 1-3 (percent of control at 10^-7 M or IC50)

Q: For `Cc1ccc(NC(=S)N[C@H]2CC[C@@H](Nc3nccc(N(C)C)n3)CC2)c(C)c1` [compound 2321], which class is on record?
A: 3 (Class 3 The value of percent of control at 10^−7 M was more than 60% or the value of IC50 was more than 200 nM.)

Q: How did the class turn out when `CN(C)c1nc(N[C@H]2CC[C@@H](CNC(=O)Nc3ccc(F)cc3F)CC2)nc2c1CCCC2` [compound 2453] was run?
A: 2 (Class 2: The value of percent of control at 10^−7 M was from 40% to 60% or the value of IC′50 was from 50 nM to 200 nM.)

Q: Which class does the source give for `Cc1cc(NC(=O)NC[C@H]2CC[C@@H](Nc3nccc(N(C)C)n3)CC2)c(C(F)(F)F)o1` [compound 2438] here?
A: 3 (Class 3 The value of percent of control at 10^−7 M was more than 60% or the value of IC50 was more than 200 nM.)

Same assay, conditions: MCH receptor; class by percent of control at 10^-7 M or IC50

Q: For `CN(C)c1nc(N[C@H]2CC[C@@H](NC(=S)NCC3CCCO3)CC2)nc2c1CCCC2` (relative stereo) [compound 1958], which class is on record?
A: 3 (Class 3 The value of percent of control at 10^−7 M was more than 60% or the value of IC50 was more than 200 nM.)

Q: Which class does the source give for `CN(C)c1nc(N[C@H]2CC[C@@H](NC(=S)Nc3c(F)cccc3F)CC2)nc2c1CCCC2` [compound 1974] here?
A: 3 (Class 3 The value of percent of control at 10^−7 M was more than 60% or the value of IC50 was more than 200 nM.)

Q: `CN(C)c1cc(N[C@H]2CC[C@@H](CNC(=O)c3cccc(C#N)c3)CC2)nc2ccccc12` [compound 156] was tested. Which class did it give?
A: 3 (Class 3 The value of percent of control at 10^−7 M was more than 60% or the value of IC50 was more than 200 nM.)

Q: With `CN(C)c1cc(N[C@H]2CC[C@@H](NC(=O)COc3ccc(Cl)cc3)CC2)nc2ccccc12` [compound 96] as the molecule, how does the class read?
A: 1 (Class 1: The value of percent of control at 10^−7 M was less than 40% or the value of IC50 was less than 50 nM.)

Q: Which class does the source give for `CN(C)c1nc(N[C@H]2CC[C@@H](NC(=S)NCCN3CCOCC3)CC2)nc2c1CCCC2` [compound 2074] here?
A: 3 (Class 3 The value of percent of control at 10^−7 M was more than 60% or the value of IC50 was more than 200 nM.)

Q: For `CN(C)c1cc(N[C@H]2CC[C@@H](CNC(=O)Cc3cccs3)CC2)nc2ccccc12` [compound 180], which class is on record?
A: 3 (Class 3 The value of percent of control at 10^−7 M was more than 60% or the value of IC50 was more than 200 nM.)

Q: `Cc1ccc(C(=O)N[C@H]2CC[C@@H](Nc3cc(N(C)C)c4ccccc4n3)CC2)cc1` [compound 51] was tested. Which class did it give?
A: 3 (Class 3 The value of percent of control at 10^−7 M was more than 60% or the value of IC50 was more than 200 nM.)

Same assay, conditions: activity class 1-3: percent of control at 10^-7 M or IC50

Q: How did the class turn out when `CN(C)c1nc(N[C@H]2CC[C@@H](NC(=O)OCC(Cl)(Cl)Cl)CC2)nc2c1CCCC2` [compound 1598] was run?
A: 3 (Class 3 The value of percent of control at 10^−7 M was more than 60% or the value of IC50 was more than 200 nM.)

Q: `CCCCNC(=O)N[C@H]1CC[C@@H](Nc2nc3c(c(N(C)C)n2)CCCC3)CC1` [compound 1695] was tested. Which class did it give?
A: 3 (Class 3 The value of percent of control at 10^−7 M was more than 60% or the value of IC50 was more than 200 nM.)

Same assay, conditions: activity class per percent of control at 10^-7 M or IC50

Q: With `CN(C)c1nc(N[C@H]2CC[C@@H](NC(=O)c3cc(Cl)cc(Cl)c3NC(=O)C#Cc3ccccc3)CC2)nc2c1CCCC2` [compound 994] as the molecule, how does the class read?
A: 1 (Class 1: The value of percent of control at 10^−7 M was less than 40% or the value of IC50 was less than 50 nM.)

Same assay, conditions: class 1-3 by percent of control at 10^-7 M or IC50

Q: `CN(C)c1nc(N[C@H]2CC[C@@H](NC(=O)/C=C/c3ccc([N+](=O)[O-])cc3)CC2)nc2c1CCCC2` [compound 515] was tested. Which class did it give?
A: 3 (Class 3 The value of percent of control at 10^−7 M was more than 60% or the value of IC50 was more than 200 nM.)

Q: For `CN(C)c1ccnc(N[C@H]2CC[C@@H](CNC(=O)c3cc(C(F)(F)F)cc(C(F)(F)F)c3)CC2)n1` [compound 423, N-[(cis-4-{[4-(dimethylamino)pyrimidin-2-yl]amino}cyclohexyl)methyl]-3,5-bis(trifluoromethyl)benzamide], which class is on record?
A: 2 (Class 2: The value of percent of control at 10^−7 M was from 40% to 60% or the value of IC′50 was from 50 nM to 200 nM.)

Q: How did the class turn out when `CCCSc1ncccc1C(=O)N[C@H]1CC[C@@H](Nc2nc3c(c(N(C)C)n2)CCCC3)CC1` [compound 520] was run?
A: 2 (Class 2: The value of percent of control at 10^−7 M was from 40% to 60% or the value of IC′50 was from 50 nM to 200 nM.)

Same assay, conditions: class by percent of control at 10^-7 M or IC50

Q: `CN(C)c1nc(N[C@H]2CC[C@@H](NC(=O)c3ccc(Br)o3)CC2)nc2c1CCCC2` [compound 970, 5-bromo-N-(cis-4-{[4-(dimethylamino)-5,6,7,8-tetrahydroquinazolin-2-yl]amino}cyclohexyl)-2-furamide] was tested. Which class did it give?
A: 1 (Class 1: The value of percent of control at 10^−7 M was less than 40% or the value of IC50 was less than 50 nM.)

Q: How did the class turn out when `CCCCc1ccc(NC(=S)N[C@H]2CC[C@@H](Nc3nc4c(c(N(C)C)n3)CCCC4)CC2)c(C)c1` [compound 1793] was run?
A: 3 (Class 3 The value of percent of control at 10^−7 M was more than 60% or the value of IC50 was more than 200 nM.)

Q: Which class does the source give for `CN(C)c1cc(N[C@H]2CC[C@@H](NC(=S)Nc3ccc(N(C)C)c4ccccc34)CC2)nc2ccccc12` [compound 2177, N-[4-(dimethylamino)-1-naphthyl]-N′-(cis-4-{[4-(dimethylamino)quinolin-2-yl]amino}cyclohexyl)thiourea] here?
A: 2 (Class 2: The value of percent of control at 10^−7 M was from 40% to 60% or the value of IC′50 was from 50 nM to 200 nM.)

Q: With `CN(C)c1nc(N[C@H]2CC[C@@H](NC(=S)Nc3ccc(Br)cc3Cl)CC2)nc2c1CCCC2` [compound 1751] as the molecule, how does the class read?
A: 1 (Class 1: The value of percent of control at 10^−7 M was less than 40% or the value of IC50 was less than 50 nM.)

Q: Which class does the source give for `CN(C)c1cc(N[C@H]2CC[C@@H](CNCc3c(F)c(F)cc(F)c3F)CC2)nc2ccccc12` [compound 1472] here?
A: 3 (Class 3 The value of percent of control at 10^−7 M was more than 60% or the value of IC50 was more than 200 nM.)

Q: Which class does the source give for `CN(C)c1ccnc(N[C@H]2CC[C@@H](CNC(=O)c3ccc(I)o3)CC2)n1` [compound 932, N-[(cis-4-{[4-(dimethylamino)pyrimidin-2-yl]amino}cyclohexyl)methyl]-5-iodo-2-furamide] here?
A: 2 (Class 2: The value of percent of control at 10^−7 M was from 40% to 60% or the value of IC′50 was from 50 nM to 200 nM.)

Q: With `CN(C)c1nc(N[C@H]2CC[C@@H](NCC3CN(C(c4ccccc4)c4ccccc4)C3)CC2)nc2c1CCCC2` [compound 1497] as the molecule, how does the class read?
A: 1 (Class 1: The value of percent of control at 10^−7 M was less than 40% or the value of IC50 was less than 50 nM.)

Q: `CN(C)c1nc(N[C@H]2CC[C@@H](NC(=O)Cc3ccc(F)cc3Cl)CC2)nc2c1CCCC2` [compound 951, 2-(2-chloro-4-fluorophenyl)-N-(cis-4-{[4-(dimethylamino)-5,6,7,8-tetrahydroquinazolin-2-yl]amino}cyclohexyl)acetamide] was tested. Which class did it give?
A: 1 (Class 1: The value of percent of control at 10^−7 M was less than 40% or the value of IC50 was less than 50 nM.)

Q: With `COc1ccc(NC(=O)N[C@H]2CC[C@@H](Nc3nccc(N(C)C)n3)CC2)cc1OC1CCCC1` [compound 2253] as the molecule, how does the class read?
A: 2 (Class 2: The value of percent of control at 10^−7 M was from 40% to 60% or the value of IC′50 was from 50 nM to 200 nM.)

Q: With `CN(C)c1nc(N[C@H]2CC[C@@H](NC(=O)Nc3ccc(Cl)c(Cl)c3)CC2)nc2c1CCCC2` [compound 1818] as the molecule, how does the class read?
A: 3 (Class 3 The value of percent of control at 10^−7 M was more than 60% or the value of IC50 was more than 200 nM.)

Q: For `CN(C)c1cc(N[C@H]2CC[C@@H](NC(=O)c3cc([N+](=O)[O-])cn3C)CC2)nc2ccccc12` [compound 768, N-(cis-4-{[4-(dimethylamino)quinolin-2-yl]amino}cyclohexyl)-1-methyl-4-nitro-1H-pyrrole-2-carboxamide], which class is on record?
A: 1 (Class 1: The value of percent of control at 10^−7 M was less than 40% or the value of IC50 was less than 50 nM.)

Q: `CN(C)c1ccnc(N[C@H]2CC[C@@H](NC(=O)c3cc(Cl)sc3Cl)CC2)n1` [compound 301] was tested. Which class did it give?
A: 2 (Class 2: The value of percent of control at 10^−7 M was from 40% to 60% or the value of IC′50 was from 50 nM to 200 nM.)

Q: With `COc1ccc(CNC[C@H]2CC[C@@H](Nc3nc4c(c(N(C)C)n3)CCCC4)CC2)c(OC)c1C` [compound 1409] as the molecule, how does the class read?
A: 3 (Class 3 The value of percent of control at 10^−7 M was more than 60% or the value of IC50 was more than 200 nM.)

Q: Which class does the source give for `COc1cc(CC(=O)N[C@H]2CC[C@@H](Nc3cc(N(C)C)c4ccccc4n3)CC2)cc(OC)c1` [compound 702] here?
A: 3 (Class 3 The value of percent of control at 10^−7 M was more than 60% or the value of IC50 was more than 200 nM.)

Same assay, conditions: class by percent of control at 10^−7 M or IC50

Q: How did the class turn out when `COc1cccc(CNC(=O)[C@H]2CC[C@@H](Nc3nc(C)cc(N(C)C)n3)CC2)c1` [compound 2815, cis-4-{[4-(dimethylamino)-6-methylpyrimidin-2-yl]amino}-N-(3-methoxybenzyl)cyclohexanecarboxamide] was run?
A: 1 (Class 1: The value of percent of control at 10^−7 M was less than 40% or the value of IC50 was less than 50 nM.)

Q: `CNc1nc(N[C@H]2CC[C@@H](NC(=O)c3ccc(Cl)c(Cl)c3)CC2)ncc1C` [compound 3030] was tested. Which class did it give?
A: 3 (Class 3 The value of percent of control at 10^−7 M was more than 60% or the value of IC50 was more than 200 nM.)

Q: For `Cc1cnc(N[C@H]2CC[C@@H](NS(=O)(=O)c3ccccc3)CC2)nc1N(C)C` [compound 2995, N-(cis-4-{[4-(dimethylamino)-5-methylpyrimidin-2-yl]amino}cyclohexyl)benzenesulfonamide], which class is on record?
A: 3 (Class 3 The value of percent of control at 10^−7 M was more than 60% or the value of IC50 was more than 200 nM.)

Q: Which class does the source give for `Cc1cc(N(C)C)nc(N[C@H]2CC[C@@H](NC(=O)c3ccc(C(F)(F)F)c(F)c3)CC2)n1` [compound 2960, N-(cis-4-{[4-(dimethylamino)-6-methylpyrimidin-2-yl]amino}cyclohexyl)-3-fluoro-4-(trifluoromethyl)benzamide] here?
A: 2 (Class 2: The value of percent of control at 10^−7 M was from 40% to 60% or the value of IC′50 was from 50 nM to 200 nM.)

Q: With `Cc1cnc(N[C@H]2CC[C@@H](CNC(=O)c3ccc(C#N)cc3)CC2)nc1N(C)C` [compound 2701] as the molecule, how does the class read?
A: 2 (Class 2: The value of percent of control at 10^−7 M was from 40% to 60% or the value of IC′50 was from 50 nM to 200 nM.)
